The text below walks through data of US9718819B2 (Merck Sharp & Dohme Corp., priority 2012, dated 2017).

In data set [1] the target is HIV-1 RT wild-type enzyme (Human immunodeficiency virus type 1 group M subtype B (isolate HXB2) (HIV-1), UniProt P04585). Nature of the data set: HIV-1 reverse transcriptase inhibitory activity (RT polymerase assay). In kind it is biochemical. To be noted: HIV-1 RT wild-type enzyme 83 pM; RNA-dependent DNA polymerase activity; read-out: IC50. A digest of the protocol:
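Biotinylated DNA primer annealed to HCV-derived RNA template (16.6 nM final hybrid), with 2 μM dATP/dGTP/dCTP and 66.6 nM Ru-dUTP, after 30 min compound–enzyme preincubation at room temperature; polymerization 90 min at 37 °C, EDTA quench. Product captured on avidin plates, electrochemiluminescence read; IC50 by four-parameter logistic fit versus DMSO and 1 μM efavirenz controls.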

The nature of data set [2]: Determination of PK parameters in dog after intravenous bolus. To be noted: male beagle dog, plasma, 50% DMSO in PEG400, read-out: Dog t1/2 (terminal half-life) (converted). In kind it is in vivo, Male beagle dogs. The method, then: Determination of PK Parameters Male beagle dogs (weight 9-13 kg) were fasted overnight and housed individually. Water was provided ad lib throughout the study. Food was allowed approximately 4 hr post dose. […] The formulations were given intravenous as a bolus injection into the cephalic vein. The vein used for the dosing will not be used for the blood sample collection for the first 4 hr post-dose). […] EDTA was used as anticoagulant and approximately 0.5 mL aliquots of blood samples were collected at each time point. […] Test compound concentration in dog plasma was determined using a LC/MS/MS method. Typically the LC/MS/MS system consisted of an ACQUITY UPLC system with autosampler system refrigerated at 4° C. during analysis, and an API 4000 mass spectrometer. […] The mobile phase consisting of a solvent A (0.1% formic acid in water/acetonitrile (95/5)) and solvent B (0.1% formic acid in acetonitrile/water (95/5)) was delivered at a flow rate of 600 μL/min. […] Mass spectrometric detection of the analytes is accomplished using either an ESI or APCI interface operated in the positive or negative ionization mode. Analyte response is measured by multiple reaction monitoring (MRM) of transitions unique to each compound […]

Structures are written as SMILES.

With `N#Cc1cc(Cl)cc(Oc2c(C(F)(F)F)ncn(Cc3cc(C(F)(F)F)c(=O)[nH]n3)c2=O)c1` [Example 6, 3-chloro-5-((6-oxo-1-((6-oxo-5-(trifluoromethyl)-1,6-dihydropyridazin-3-yl)methyl)-4-(trifluoromethyl)-1,6-dihydropyrimidin-5-yl)oxy)benzonitrile], the IC50 in data set [1] came out at 8 nM. Moreover, the half-life in data set [2] is 4320 min. As to `N#Cc1cc(Cl)cc(Oc2c(C(F)(F)F)ncn(Cc3ccc(=O)[nH]n3)c2=O)c1` [Example 7, 3-chloro-5-((6-oxo-1-((6-oxo-1,6-dihydropyridazin-3-yl)methyl)-4-(trifluoromethyl)-1,6-dihydropyrimidin-5-yl)oxy)benzonitrile], in data set [1], the IC50 came out at 8 nM. Besides, in data set [2], the half-life was 1680 min. As for `N#Cc1cc(Cl)cc(Oc2c(C(F)(F)F)ncn(Cc3cc(-c4ccc(C#N)c(F)c4)c(=O)[nH]n3)c2=O)c1` [Example 68, 4-(6-((5-(3-chloro-5-cyanophenoxy)-6-oxo-4-(trifluoromethyl)pyrimidin-1(6H)-yl)methyl)-3-oxo-2,3-dihydropyridazin-4-yl)-2-fluorobenzonitrile], in data set [1], the IC50 stood at 7 nM. Besides, the half-life in data set [2] is 1500 min. In the case of `N#Cc1cc(Cl)cc(Oc2c(C(F)(F)F)ncn(Cc3cc(-c4ccc(F)cc4)c(=O)[nH]n3)c2=O)c1` [Example 77, 3-chloro-5-((1-((5-(4-fluorophenyl)-6-oxo-1,6-dihydropyridazin-3-yl)methyl)-6-oxo-4-(trifluoromethyl)-1,6-dihydropyrimidin-5-yl)oxy)benzonitrile], the half-maximal inhibitory concentration (IC50) in data set [1] came to 4 nM. Besides, the half-life in data set [2] was 4740 min. On to `CC(F)(F)c1cc(Cn2cnc(C(F)(F)F)c(Oc3cc(Cl)cc(C#N)c3)c2=O)n[nH]c1=O` [Example 104, 3-chloro-5-((1-((5-(1,1-difluoroethyl)-6-oxo-1,6-dihydropyridazin-3-yl)methyl)-6-oxo-4-(trifluoromethyl)-1,6-dihydropyrimidin-5-yl)oxy)benzonitrile], for which the IC50 in data set [1] is 15 nM. Further, the half-life in data set [2] was 1440 min. Turning to `N#Cc1cc(Cl)cc(Oc2c(C(F)(F)F)ncn(Cc3cc(-c4ccccc4)n[nH]c3=O)c2=O)c1` [Example 110, 3-chloro-5-((6-oxo-1-((3-oxo-6-phenyl-2,3-dihydropyridazin-4-yl)methyl)-4-(trifluoromethyl)-1,6-dihydropyrimidin-5-yl)oxy)benzonitrile], in data set [1], the IC50 was determined as 3 nM. In addition, the half-life in data set [2] was 1200 min. With `N#Cc1cc(Cl)cc(Oc2c(C(F)(F)F)ncn(Cc3cc(C4CC4)n[nH]c3=O)c2=O)c1` [Example 117, 3-chloro-5-((1-((6-cyclopropyl-3-oxo-2,3-dihydropyridazin-4-yl)methyl)-6-oxo-4-(trifluoromethyl)-1,6-dihydropyrimidin-5-yl)oxy)benzonitrile], in data set [1], the half-inhibitory concentration (IC50) came out at 6 nM. Also, in data set [2], the half-life was 1800 min. Consider `N#Cc1cc(Cl)cc(Oc2c(C(F)(F)F)ncn(Cc3cc(C(F)F)n[nH]c3=O)c2=O)c1` [Example 128, 3-chloro-5-((1-((6-(difluoromethyl)-3-oxo-2,3-dihydropyridazin-4-yl)methyl)-6-oxo-4-(trifluoromethyl)-1,6-dihydropyrimidin-5-yl)oxy)benzonitrile], for which the half-inhibitory concentration (IC50) in data set [1] stood at 4 nM. Besides, the half-life in data set [2] is 4860 min. With `CC(F)(F)c1cc(Cn2cnc(C(F)(F)F)c(Oc3cc(Cl)cc(C#N)c3)c2=O)c(=O)[nH]n1` [Example 129, 3-chloro-5-((1-((6-(1,1-difluoroethyl)-3-oxo-2,3-dihydropyridazin-4-yl)methyl)-6-oxo-4-(trifluoromethyl)-1,6-dihydropyrimidin-5-yl)oxy)benzonitrile], the IC50 in data set [1] turned out to be 6 nM. Besides, the half-life in data set [2] is 7560 min.

Consider `CC(C)(C)c1ncc(Cn2cnc(C(F)(F)F)c(Oc3cc(Cl)cc(C#N)c3)c2=O)c(=O)[nH]1` [Example 130, 3-((1-((2-(tert-butyl)-6-oxo-1,6-dihydropyrimidin-5-yl)methyl)-6-oxo-4-(trifluoromethyl)-1,6-dihydropyrimidin-5-yl)oxy)-5-chlorobenzonitrile], for which the IC50 in data set [1] amounted to 12 nM. Besides, in data set [2], the half-life is 1440 min.

On to `Cc1ncn(Cc2cc(C(F)F)n[nH]c2=O)c(=O)c1Oc1cc(Cl)cc(C#N)c1` [Example 176, 3-chloro-5-((1-((6-(difluoromethyl)-3-oxo-2,3-dihydropyridazin-4-yl)methyl)-4-methyl-6-oxo-1,6-dihydropyrimidin-5-yl)oxy)benzonitrile], for which, in data set [1], the IC50 came to 6 nM. Regarding `CC(F)(F)c1ncn(Cc2cc(C(F)F)n[nH]c2=O)c(=O)c1Oc1cccc(C#N)c1F` [Example 177, 3-((4-(1,1-difluoroethyl)-1-((6-(difluoromethyl)-3-oxo-2,3-dihydropyridazin-4-yl)methyl)-6-oxo-1,6-dihydropyrimidin-5-yl)oxy)-2-fluorobenzonitrile], in data set [1], the 50% inhibitory concentration (IC50) came out at 17 nM.

`CC(F)(F)c1cc(Cn2cnc(C(F)(F)F)c(Oc3cccc(C#N)c3F)c2=O)c(=O)[nH]n1` [Example 178, 3-((1-((6-(1,1-difluoroethyl)-3-oxo-2,3-dihydropyridazin-4-yl)methyl)-6-oxo-4-(trifluoromethyl)-1,6-dihydropyrimidin-5-yl)oxy)-2-fluorobenzonitrile]: the IC50 in data set [1] was found to be 9 nM.

Take `CC(F)(F)c1cc(Cn2cnc(C(F)F)c(Oc3cc(Cl)cc(C#N)c3)c2=O)c(=O)[nH]n1` [Example 179, 3-chloro-5-((1-((6-(1,1-difluoroethyl)-3-oxo-2,3-dihydropyridazin-4-yl)methyl)-4-(difluoromethyl)-6-oxo-1,6-dihydropyrimidin-5-yl)oxy)benzonitrile]: the IC50 in data set [1] came out at 8 nM. `CC(F)(F)c1cc(Cn2cnc(C(C)(F)F)c(Oc3cc(Cl)cc(C#N)c3)c2=O)c(=O)[nH]n1` [Example 180, 3-chloro-5-((4-(1,1-difluoroethyl)-1-((6-(1,1-difluoroethyl)-3-oxo-2,3-dihydropyridazin-4-yl)methyl)-6-oxo-1,6-dihydropyrimidin-5-yl)oxy)benzonitrile]: the IC50 in data set [1] turned out to be 5 nM. In the case of `Cc1ncn(Cc2cc(C(C)(F)F)n[nH]c2=O)c(=O)c1Oc1cc(Cl)cc(C#N)c1` [Example 181, 3-chloro-5-((1-((6-(1,1-difluoroethyl)-3-oxo-2,3-dihydropyridazin-4-yl)methyl)-4-methyl-6-oxo-1,6-dihydropyrimidin-5-yl)oxy)benzonitrile], the IC50 in data set [1] worked out at 12 nM.

Regarding `CC(F)(F)c1cc(Cn2cnc(C(C)(F)F)c(Oc3cccc(C#N)c3F)c2=O)c(=O)[nH]n1` [Example 182, 3-((4-(1,1-difluoroethyl)-1-((6-(1,1-difluoroethyl)-3-oxo-2,3-dihydropyridazin-4-yl)methyl)-6-oxo-1,6-dihydropyrimidin-5-yl)oxy)-2-fluorobenzonitrile], in data set [1], the IC50 was determined as 9 nM.
